# Assay results taken from patent US7422733B2, “Linkable sialyl Lewis X analogs” (Bracco International B.V., priority 2000, dated 2008).
# Legend:
# E-selectin [1] = molecular target: T1, E-selectin (Homo sapiens, UniProt P16581); conditions: in vitro, published value; cited from earlier work
# T1 sequence (P16581 22-610): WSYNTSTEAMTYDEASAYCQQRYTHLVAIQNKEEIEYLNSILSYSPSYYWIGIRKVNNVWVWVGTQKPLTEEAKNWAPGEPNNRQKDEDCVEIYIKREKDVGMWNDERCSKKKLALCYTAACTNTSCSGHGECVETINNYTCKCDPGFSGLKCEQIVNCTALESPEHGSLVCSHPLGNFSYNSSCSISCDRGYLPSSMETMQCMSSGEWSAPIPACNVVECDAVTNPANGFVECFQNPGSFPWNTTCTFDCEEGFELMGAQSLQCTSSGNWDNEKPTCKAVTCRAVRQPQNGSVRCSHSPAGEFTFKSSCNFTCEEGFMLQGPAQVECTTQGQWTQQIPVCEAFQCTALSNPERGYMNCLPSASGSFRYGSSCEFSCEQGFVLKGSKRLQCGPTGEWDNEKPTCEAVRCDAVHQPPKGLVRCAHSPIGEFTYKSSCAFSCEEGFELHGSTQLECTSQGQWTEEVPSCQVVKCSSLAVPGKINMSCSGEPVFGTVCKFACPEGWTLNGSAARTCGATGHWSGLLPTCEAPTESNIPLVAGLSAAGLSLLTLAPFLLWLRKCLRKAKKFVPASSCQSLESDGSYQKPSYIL
# E-selectin [2] = molecular target: T1, E-selectin; test: binding of radiolabeled analog 3b to human aortic endothelial cells in vitro (E-selectin binding assay); design: endogenous in cells; host or cells: human aortic endothelial cells, stimulated with TNF-alpha or unstimulated
# Procedure: We evaluated the ability of the radiolabeled acetamido-phenyl Sialyl Lewis^x analog 3b to bind to human aortic endothelial cells in vitro. […] S. A. DeFrees et al., J. Am. Chem. Soc., 117:66-79 (1995). […] The binding sites were specific to native Sialyl Lewis^x, since it was shown that cold unlabeled Sialyl Lewis^x (formula A) at a concentration of 10 mM displaced close to 50% of the bound counts at 0.2 mM concentration.
SMILES,Kd (E-selectin [1]) [mM],"displacement of bound counts (E-selectin [2]; cold unlabeled competitor at 10 mM, bound 3b counts at 0.2 mM) [%]",behaviour in E-selectin binding assay compared to native Sialyl Lewis^x (E-selectin [2]),"concentrations at which the analog bound significantly (E-selectin [2]; activated human aortic endothelial cells, 14C-labeled analog)",increase in the extent of binding in TNF-α stimulated cells over unstimulated control cells (E-selectin [2]; cells stimulated with TNF-α vs unstimulated control cells),binding relative to published Kd of native Sialyl Lewis^x (E-selectin [2]; compared with published value of 1-2 mM)
"CC(=O)NC1C(O)OC(CO)C(OC2OC(CO)C(O)C(OC3(C(=O)O)CC(O)C(NC(C)=O)C([C@H](O)[C@H](O)CO)O3)C2O)C1OC1OC(C)C(O)C(O)C1O (stereo partly drawn) [Sialyl Lewis^x, sialyl Lewis X]",1 to 2,~50,–,–,–,–
CC(=O)N[C@H]1[C@H](Oc2ccc(N[14C](C)=O)cc2)O[C@H](CO)[C@@H](O[C@@H]2O[C@H](CO)[C@H](O)[C@H](O[C@]3(C(=O)O)C[C@H](O)[C@@H](NC(C)=O)[C@H]([C@H](O)[C@H](O)CO)O3)[C@H]2O)[C@@H]1O[C@@H]1O[C@@H](C)[C@@H](O)[C@@H](O)[C@@H]1O [compound 3b],–,–,superior to native Sialyl Lewis^x,0.1-0.2 mM,two-fold increase,ten fold greater
